Test results from patent publication US6448260B2, “Endothelin receptor antagonists” (SmithKline Beecham Corporation, priority 1991, dated 2002).

Structure (SMILES) | melting point [°C]
COc1ccc([C@@H]2c3cc(OC)ccc3[C@H](c3ccc4c(c3OC)OCO4)[C@H]2C(=O)O)cc1 (racemic) [Example 93, (1RS, 2SR, 3RS)-5-Methoxy-1-(2-methoxy-3,4-methylenedioxyphenyl)-3-(4-methoxyphenyl)indane-2-carboxylic acid] | 148 to 149
CCCOc1ccc2c(c1)[C@H](c1ccc(OC(C)C)cc1OCC(=O)O)[C@H](C(=O)O)[C@@H]2c1ccc2c(c1)OCO2 (racemic) [Example 95, (1RS, 2RS, 3RS)-3-(2-Carboxymethoxy-4-isopropyloxyphenyl)-1-(3,4-methylenedioxyphenyl)-5-(prop-1-yloxy)indane-2-carboxylic acid] | 183 to 185
C=CCCOc1ccc2c(c1)[C@@H](c1ccc(OC)cc1)[C@H](C(=O)O)[C@@H]2c1ccc2c(c1)OCO2 (racemic) [Example 106, (1RS, 2SR, 3RS)-5-(3-Buten-1-yloxy)-3-(4-methoxyphenyl)-1-(3,4-methylenedioxyphenyl)indane-2-carboxylic acid] | 127 to 129
CCCOc1ccc2c(c1)[C@H](c1ccc(OC)cc1Oc1ncccc1C(=O)O)[C@@H](C(=O)O)[C@@H]2c1ccc2c(c1)OCO2 (racemic) [Example 98, (1RS, 2SR, 3RS)-3-[2-[(3-Carboxypyridin-2-yl)oxy]-4-methoxyphenyl]-1-(3,4-methylenedioxyphenyl)-5-(prop-1-yloxy) indane-2-carboxylic acid] | 152 to 155
O=C(O)[C@H]1[C@H](c2ccc3c(c2)OCO3)c2ccc(O)cc2[C@@H]1c1ccc(OC(F)(F)F)cc1 (racemic) [Example 108, (1RS, 2RS, 3SR)-5-Hydroxy-1-(3,4-methylenedioxyphenyl)-3-(4-trifluoromethoxyphenyl)indane-2-carboxylic acid] | 100 to 104
CCCOc1ccc2c(c1)[C@H](c1ccccc1OCCC)[C@@H](C(=O)O)[C@@H]2c1ccc2c(c1)OCO2 (racemic) [Example 35, (1RS, 2SR, 3RS)-1-(3,4-Methylenedioxyphenyl)-3-[2-(prop-1-yloxy)phenyl]-5-(prop-1-yloxy)indane-2-carboxylic acid] | 179 to 180
CCCOc1ccc2c(c1)[C@H](c1ccc(OC)cc1OCC(=O)O)[C@@H](CNS(=O)(=O)C(F)(F)F)[C@@H]2c1ccc2c(c1)OCO2 (racemic) [Example 140, (1RS, 2SR, 3RS)-2-Trifluoromethylsulfonamidomethyl-3-(2-carboxymethoxy-4-methoxyphenyl)-1-(3,4-methylenedioxyphenyl)-5-(prop-1-yloxy)indane] | 184 to 186
COc1ccc([C@H]2c3cc(OC)ccc3[C@@H](c3ccc4c(c3)OCO4)[C@H]2C(=O)O)cc1 (racemic) [Example 28, (1RS, 2SR, 3SR)-5-Methoxy-3-(4-methoxyphenyl)-1-(3,4-methylenedioxyphenyl)indane-2-carboxylic acid] | 129 to 131
CCCOc1ccc2c(c1)[C@@H](c1ccc(OC)cc1OCC(=O)O)[C@@H](C(=O)O)[C@H]2c1cc2c(cc1OC)OCO2 (racemic) [Example 30, (1RS, 2SR, 3SR)-3-(2-Carboxymethoxy-4-methoxyphenyl)-1-(2-methoxy-4,5-methylenedioxyphenyl)-5-(prop-1-yloxy)-indane-2-carboxylic acid] | 188 to 190
COc1ccc([C@@H]2c3ccccc3[C@H](c3ccc4c(c3)OCO4)[C@H]2c2nnn[nH]2)cc1 (racemic) (hydrate or solvate) [Example 9, (1RS, 2SR, 3SR)-1-(4-Methoxyphenyl)-3-(3,4-methylenedioxyphenyl)-2-(tetrazol-5-yl)indane] | 155 to 157
CCCCOc1ccc2c(c1)[C@H](C1(OC)C=CC=CC1)[C@@H](C(=O)O)[C@@H]2c1ccc2c(c1)OCO2 (mixture of isomers) [Example 107, (1RS, 2SR, 3RS)-5-(But-1-yloxy)-3-(1-methoxyphenyl)-1-(3,4-methylenedioxyphenyl)indane-2-carboxylic acid] | 157 to 158
CCCOc1ccc2c(c1)[C@H](c1ccc(OC)cc1OCOC)[C@@H](C(=O)O)[C@@H]2c1ccc2c(c1)OCO2 (racemic) [Example 31, (1RS, 2SR, 3RS)-3-(4-methoxy-2-methoxymethoxyphenyl)1-(3,4-methylenedioxyphenyl)-5-(prop-1-yloxy)indane-2-carboxylic acid] | 161 to 163
O=C(O)[C@H]1[C@H](c2ccc(F)cc2)c2ccccc2[C@@H]1c1ccc2c(c1)OCO2 (racemic) [Example 4, (1RS, 2SR, 3SR)-1-(4-Fluorophenyl)-3-(3,4-methylenedioxyphenyl)indane-2-carboxylic acid] | 146 to 149
COc1ccc([C@H]2c3cc(O)ccc3[C@@H](c3ccc4c(c3)OCO4)[C@@H]2C(=O)O)c(OC)c1 (racemic) [Example 76, (1RS, 2SR, 3RS)-3-(2,4-Dimethoxyphenyl)-5-hydroxy-1-(3,4-methylenedioxyphenyl)indane-2-carboxylic acid] | 110 to 113
COc1ccc([C@@H]2c3cc(O)ccc3[C@H](c3cc4c(cc3OC)OCO4)[C@H]2C(=O)O)cc1 (racemic) [Example 82, (1RS, 2SR, 3RS)-5-Hydroxy-3-(4-methoxyphenyl)-1-(2-methoxy-4,5-methylenedioxyphenyl)indane-2-carboxylic acid] | 236 to 239
CCCCc1ccc2c(c1)[C@H](c1ccc(OC)cc1OCC(=O)O)[C@@H](C(=O)O)[C@@H]2c1ccc2c(c1)OCO2 (racemic) [Example 89, (1RS, 2SR, 3RS)-5-Butyl-3-(2-carboxymethoxy-4-methoxyphenyl)-1-(3,4-methylenedioxyphenyl) indane-2-carboxylic acid] | 176 to 177
CCCOc1ccc2c(c1)[C@H](c1ccc(OC)cc1OCC(C)C)[C@@H](C(=O)O)[C@@H]2c1ccc2c(c1)OCO2 (racemic) [Example 43, (1RS, 2SR, 3RS)-3-[4-Methoxy-2-(2-methylprop-1-yloxy)phenyl]-1-(3,4-methylenedioxyphenyl)-5-(prop-1-yloxy)indane-2-carboxylic acid] | 85 to 89
CCCOc1ccc2c(c1)[C@H](c1ccccc1O)[C@@H](C(=O)O)[C@@H]2c1ccc2c(c1)OCO2 (racemic) [Example 36, (1RS, 2SR, 3RS)-3-(2-Hydroxyphenyl)-1-(3,4-methylenedioxyphenyl)-5-(prop-1-yloxy)indane-2-carboxylic acid] | 97 to 98
O=C(O)C1[C@H](c2ccc3c(c2)OCO3)c2ccccc2[C@H]1c1ccc2c(c1)OCO2 (racemic) [Example 6, (1RS, 3RS)-1,3-Di-(3,4-methylenedioxyphenyl)-indane-2-carboxylic acid] | 182 to 185

The next lines start with the values.

melting point [°C] | Structure (SMILES)
199 to 201 | CCCOc1ccc2c(c1)[C@H](c1ccc(OC)cc1OCC#N)[C@@H](C(=O)O)[C@@H]2c1ccc2c(c1)OCO2 (racemic) [Example 50, (1RS,2SR,3RS)-3-(2-Cyanomethoxy-4-methoxyphenyl)-1-(3,4-methylenedioxyphenyl)-5-(prop-1-yloxy)indane-2-carboxylic acid]
191 to 193 | COc1ccc(C2C(C(=O)O)=C(c3ccccc3)c3ccccc32)cc1 (racemic) [Example 15, (1RS)-1-(4-Methoxyphenyl)-3-phenylindene-2-carboxylic acid]
126 to 127 | C=CCc1cc(OC)ccc1[C@H]1c2cc(OCCC)ccc2[C@@H](c2ccc3c(c2)OCO3)[C@@H]1C(=O)O (racemic) [Example 60, (1RS, 2SR, 3SR)-3-[4-Methoxy-2-(prop-2-en-1-yl)phenyl]-1-(3,4-methylenedioxyphenyl)-5-(prop-1-yloxy)indane-2-carboxylic acid]
94 to 96 | O=C(O)[C@H]1[C@H](c2ccc(O)cc2)c2ccccc2[C@@H]1c1ccc2c(c1)OCO2 (racemic) [Example 25, (1RS, 2SR, 3SR)-1-(4-Hydroxyphenyl)-3-(3,4-methylenedioxyphenyl)indane-2-carboxylic acid]
199 to 200 | CCCOc1ccc2c(c1)[C@H](c1ccc(OC)cc1-c1ccccc1)[C@@H](C(=O)O)[C@@H]2c1ccc2c(c1)OCO2 (racemic) [Example 56, (1RS, 2SR, 3RS)-3-(4-Methoxy-2-phenylphenyl)-1-(3,4-methylenedioxyphenyl)-5-(prop-1-yloxy)indane-2-carboxylic acid]
124 to 127 | COc1ccc([C@@H]2c3ccc(O)cc3[C@H](c3ccc4c(c3)OCO4)[C@H]2C(=O)O)cc1 (racemic) [Example 81, (1RS, 2SR, 3SR)-5-Hydroxy-3-(3,4-methylenedioxyphenyl)-1-(4-methoxyphenyl)indane-2-carboxylic acid]
231 to 232 | COc1ccc([C@H]2c3ccccc3[C@@H](c3ccc(NC(C)=O)cc3)[C@H]2C(=O)O)cc1 (racemic) [Example 23, (1RS, 2RS, 3SR)-1-(4-Acetamidophenyl)-3-(4-methoxyphenyl)indane-2-carboxylic acid]
197 to 198 | COc1ccc([C@@H]2c3ccccc3[C@H](c3cc(OC)c(OC)c(OC)c3)[C@H]2C(=O)O)cc1 (racemic) [Example 72, (1RS, 2SR, 3S R)-1-(4-Methoxyphenyl)-3-(3,4,5-trimethoxyphenyl)indane-2-carboxylic acid]
169 to 170 | CCCOc1ccc2c(c1)[C@H](c1ccccc1OCC(=O)O)[C@@H](C(=O)O)[C@@H]2c1ccc2c(c1)OCO2 (racemic) [Example 37, (1 RS, 2SR, 3RS)-3-(2-Carboxymethoxyphenyl)-1-(3,4-methylenedioxyphenyl)-5-(prop-1-yloxy)indane-2-carboxylic acid]
155 to 156 | CCCOc1ccc2c(c1)[C@H](c1ccc(OC)cc1CCC)[C@@H](C(=O)O)[C@@H]2c1ccc2c(c1)OCO2 (racemic) [Example 61, (1RS, 2SR, 3SR)-3-[4-Methoxy-2-(prop-1-yl)phenyl]-1-(3,4-methylenedioxyphenyl)-5-(prop-1-yloxy)indane-2-carboxylic acid]
168 to 170 | C=CCOc1cc(OC)ccc1[C@H]1c2cc(OCCC)ccc2[C@@H](c2ccc3c(c2)OCO3)[C@@H]1C(=O)O (racemic) [Example 100, (1RS, 2SR, 3RS)-1-(3,4-Methylenedioxyphenyl)-3-[4methoxy-2-(2-propen-1-yloxy)phenyl]-5-(prop-1-yloxy)indane-2-carboxylic acid]
